Measured values reported in patent publication US5494914A, “Inhibitors for testosterone 5α-reductase activity” (Endorecherche, priority 1994, dated 1996).

Assays:
[1] = system: 5α-reductase; conditions: Liang et al. 1981; cited from earlier work
[2] = system: ventral prostate; conditions: rat; Brooks et al. 1981; cited from earlier work
[3] = system: rat prostate; conditions: in vitro and in vivo; Brooks et al. 1981; cited from earlier work
[4] = target: T1, 5α-reductase (Homo sapiens, UniProt P18405); assay: 5α-reductase inhibition in DU 145 cells (conversion of tritiated 4-androstenedione); format: cell-based
T1 construct: host or cells: DU 145 (human prostate carcinoma)
T1 sequence (P18405 1-259): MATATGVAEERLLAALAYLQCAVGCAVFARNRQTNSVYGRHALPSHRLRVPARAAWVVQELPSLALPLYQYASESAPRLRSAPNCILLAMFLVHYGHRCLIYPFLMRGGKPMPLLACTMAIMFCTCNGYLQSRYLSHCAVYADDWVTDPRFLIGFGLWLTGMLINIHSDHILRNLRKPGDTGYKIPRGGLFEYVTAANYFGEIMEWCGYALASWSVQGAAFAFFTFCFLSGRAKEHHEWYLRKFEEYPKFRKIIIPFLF
Description: Except where otherwise indicated, 5α-reductase inhibition is measured by the following method. Plates having 24 dishes per unit are used. Into each dish were placed 100,000 cells from the human carcinoma metastatic prostatic cell line DU 145 (ATCC #HTB 81) in MEM medium containing 2% dextran charcoal-treated calf serum, 1% penicillin, 1% streptomycin and 1% non essential amino acids. After 24 h, the medium was removed and replaced by 2.5 ml of MEM medium containing 2% dextran charcoal-treated calf serum, 10 nM of tritiated […] and 1% of ethanol. Each dish had different concentrations of the 5α-reductase inhibitor being tested. The cells were incubated for 24 h at 37° C. under an atmosphere of 5% CO2 saturated with water. The extracellular medium was then removed, centrifuged at 1000 RPM for 10 min., and decanted in test tubes. To these test tubes was added 100 μl of ethanol containing 25 μg of androstanedione, 25 μg of 4-androstenedione, 25 μg of dihydrotestosterone and 25 μg of testosterone. The steroids were then extracted from the mixture by two extractions with 2 ml of diethyl ether. Phase separation was achieved by freezing of the aqueous phase. The organic phase was then evaporated, thus leaving asteroid residue which was dissolved in a few drops of methylene chloride and spotted on TLC plates (Whatman WH 4420222). After developing twice with a mixture of benzene-acetone (9:1), the spots were visualized by U.V. and gaseous iodine, cut, put into separate vials for each steroid and extracted for 15 min with 1 ml of ethanol. After addition of 10 ml of scintillation cocktail (NEN 989), the vials were shaked and counted.
The 5α-reductase activity is the sum of the transformation of 4-androstenedione to androstanedione and of the transformation of testosterone to dihydrotestosterone.

[5] = system: prostate; conditions: men; Imperato-McGinley et al. 1989; cited from earlier work
[6] = system: type II 5α-reductase; conditions: Andersson et al. 1991; cited from earlier work
[7] = system: type I 5α-reductase; conditions: Andersson et al. 1991; cited from earlier work
[8] = system: intraprostatic DHT; conditions: men; Imperato-McGinley et al. 1989; cited from earlier work

Ki [4] [nM]	SMILES	further results
	CCN(CC)C(=O)[C@H]1CC[C@H]2[C@@H]3CC[C@H]4N(C)C(=O)CC[C@]4(C)[C@H]3CC[C@]12C [4-MA, N,N-diethyl-4-methyl-3-oxo-4-aza-5α-androstane-17β-carboxamide]	5α-reductase inhibition type [1]: reversible inhibitor of 5α-reductase; testosterone-induced increase in ventral prostate weight [2]: reducing the testosterone-induced increase in ventral prostate weight; inhibiting the formation of DHT from testosterone in rat prostate [3]: useful in inhibiting the formation of DHT from testosterone in rat prostate in vitro and in vivo
29	CN(C=O)[C@H]1CC[C@H]2[C@@H]3CC[C@H]4N(C)C(=O)CC[C@]4(C)[C@H]3CC[C@]12C [EM 316, 17β-(N-methyl-N-formamido)-4-methyl-4-aza-5α-androstan-3-one]	
11.2	CN1C(=O)CC[C@]2(C)[C@H]3CC[C@]4(C)[C@@H](N(C=O)C5CC5)CC[C@H]4[C@@H]3CC[C@@H]12 [EM 336, 17β-(N-Cyclopropyl-N-formamido)-4-methyl-4-aza-5α-androstan-3-one]	
11.9	CN1C(=O)CC[C@]2(C)[C@H]3CC[C@]4(C)[C@@H](N(C=O)C5CCCCC5)CC[C@H]4[C@@H]3CC[C@@H]12 [EM 337, 17β-(N-Cyclohexyl-N-formamido)-4-methyl-4-aza-5α-androstan-3-one]	
2.6	CCCCN(C=O)[C@H]1CC[C@H]2[C@@H]3CC[C@H]4N(C)C(=O)CC[C@]4(C)[C@H]3CC[C@]12C [EM 347, 17β-(N-n-butyl-N-formamido)-4-methyl-4-aza-5α-androstan-3-one]	
0.5	CNC(=O)N(C1CC1)[C@H]1CC[C@H]2[C@@H]3CC[C@H]4N(C)C(=O)CC[C@]4(C)[C@H]3CC[C@]12C [EM 373, 17β-N-(1N-cyclopropyl-2N-methylurea)-4-methyl-4-aza-5α-androstan-3-one]	
2.3	CN1C(=O)CC[C@]2(C)[C@H]3CC[C@]4(C)[C@@H](N(C(=O)Nc5ccccc5)C5CC5)CC[C@H]4[C@@H]3CC[C@@H]12 [EM 374, 17β-N-(1N-cyclopropyl-2N-phenylurea)-4-methyl-4-aza-5α-androstan-3-one]	
7.1	CCCNC(=O)N(C1CC1)[C@H]1CC[C@H]2[C@@H]3CC[C@H]4N(C)C(=O)CC[C@]4(C)[C@H]3CC[C@]12C [EM 390]	
13.5	CCNC(=O)N(C1CC1)[C@H]1CC[C@H]2[C@@H]3CC[C@H]4N(C)C(=O)CC[C@]4(C)[C@H]3CC[C@]12C [EM 392, 17βN-(1N-cyclopropyl-2N-ethylurea)-4-methyl-4-aza-5α-androstan-3-one]	
3.3	CCCCNC(=O)N(C1CC1)[C@H]1CC[C@H]2[C@@H]3CC[C@H]4N(C)C(=O)CC[C@]4(C)[C@H]3CC[C@]12C [EM 394]	
14	CC(C)NC(=O)N(C1CC1)[C@H]1CC[C@H]2[C@@H]3CC[C@H]4N(C)C(=O)CC[C@]4(C)[C@H]3CC[C@]12C [EM 396]	
3.2	CN1C(=O)CC[C@]2(C)[C@H]3CC[C@]4(C)[C@@H](N(C(=O)NC5CCCCC5)C5CC5)CC[C@H]4[C@@H]3CC[C@@H]12 [EM 397]	
1.8	CCCCCN(C=O)[C@H]1CC[C@H]2[C@@H]3CC[C@H]4N(C)C(=O)CC[C@]4(C)[C@H]3CC[C@]12C [EM 401, 17β(N-n-Amyl-N-formamido)-4-methyl-4-aza-5α-androstan-3-one]	
7.2	CCCCCCN(C=O)[C@H]1CC[C@H]2[C@@H]3CC[C@H]4N(C)C(=O)CC[C@]4(C)[C@H]3CC[C@]12C [EM 402, 17β-(N-n-Hexyl-N-formamido)-4-methyl-4-aza-5α-androstan-3-one]	
2.2	CC(C)CCN(C=O)[C@H]1CC[C@H]2[C@@H]3CC[C@H]4N(C)C(=O)CC[C@]4(C)[C@H]3CC[C@]12C [EM 405, 17β-(N-iso-Amyl-N-formamido)-4-methyl-4-aza-5α-androstan-3-one]	
10.6	CCC(CC)N(C=O)[C@H]1CC[C@H]2[C@@H]3CC[C@H]4N(C)C(=O)CC[C@]4(C)[C@H]3CC[C@]12C [EM 407, 17β-(N-1-Ethylpropyl-N-formamido)-4-methyl-4-aza-5α-androstan-3-one]	
8.2	CN(C(=O)Nc1ccccc1)[C@H]1CC[C@H]2[C@@H]3CC[C@H]4N(C)C(=O)CC[C@]4(C)[C@H]3CC[C@]12C [EM 408, 17βN-(1N-methyl-2N-phenylurea)-4-methyl-4-aza-5α-androstan-3-one]	
7.3	CC(C)CN(C=O)[C@H]1CC[C@H]2[C@@H]3CC[C@H]4N(C)C(=O)CC[C@]4(C)[C@H]3CC[C@]12C [EM 422, 17β-(N-iso-Butyl-N-formamido)-4-methyl-4-aza-5-androstan-3-one]	
5.1	CCCN(C=O)[C@H]1CC[C@H]2[C@@H]3CC[C@H]4N(C)C(=O)CC[C@]4(C)[C@H]3CC[C@]12C [EM 423, 17β-(N-n-propyl-N-formamido)-4-methyl-4-aza-5α-androstan-3-one]	
11.8	CCCCN(C(C)=O)[C@H]1CC[C@H]2[C@@H]3CC[C@H]4N(C)C(=O)CC[C@]4(C)[C@H]3CC[C@]12C [EM 424, 17β-(N-n-butyl-N-acetamido)-4-methyl-4-aza-5α-androstan-3-one]	
5.6	CN1C(=O)CC[C@]2(C)[C@H]3CC[C@]4(C)[C@@H](N(C=O)Cc5ccccc5)CC[C@H]4[C@@H]3CC[C@@H]12 [EM 436, 17β-(N-Benzyl-N-formamido)-4-methyl-4-aza-5α-androstan-3-one]	
	CC(C)(C)NC(=O)[C@H]1CC[C@H]2[C@@H]3CC[C@H]4NC(=O)C=C[C@]4(C)[C@H]3CC[C@]12C [MK-906]	reduction in prostatic size [5]: 25-30%; inhibition of the type II enzyme [6]: potent inhibitor of the type II enzyme; inhibition of the type I enzyme [7]: weak inhibitor of the type I enzyme; intraprostatic concentration of DHT [8]: reduction in the intraprostatic concentration of DHT
